Values joined by “and” are separate entries in the source; they are usually repeats but may differ in a detail not shown here. Identical values can stand only once. Like-named read-outs stand apart in the source and are kept apart here.
Columns and labels:
[1] = test system: CYP74C3; conditions: for Spin state of the haem iron after ligand or detergent binding: pH 6.5
Experimental: (a) UV/Visible spectra of ligand-bound forms of oxidised native CYP74C3 (2 μM, ? ); KCN (100 mM, ——); imidazole (50 mM, ---------); DMPhP (250 mM, —[…] […]—). The spectrum of dithionite (50 mM) reduced CYP74C3 (2 μM) before ([…]) and after (—[…]—) reaction with CO (˜1 mM) are also shown. […] (c) Stopped-flow diode array spectral changes over a period of 200 s for cyanide (100 mM) binding to native oxidised CYP74C3 (2 μM).
Spectra and steady-state kinetic analyses were performed using a dual beam scanning Shimadzu UV/Visible spectrophotometer (Model UV-1601, Shimadzu, Milton Keynes, U.K.). […] Stopped flow-UV/Visible data were analysed with the KineticAsyst 3.0 software package (Hi-Tech Scientific). Ligand-binding studies were carried out with both the native oxidised and the dithionite ion reduced forms of CYP74C3.

[2] = test system: CYP74C3
Experimental: (a) Dose response curve for reactivation of detergent-free CYP74C3 with the detergent Emulphogene. Detergent-free CYP74C3 was incubated with an equal volume of 100 mM sodium phosphate buffer, pH 6.5 or containing detergent (0.01-10.24 mM Emulphogene) for 15 min on ice. Samples (1.2 pmol) were then assayed for HPL activity in the standard assay with 20 μM 13α-HPOT; (b) Plot of predicted micelle concentration versus activity for calculation of Kd for Emulphogene binding and (c) Fit of velocity-substrate curves to one-site saturation model in SigmaPlot for detergent-free CYP74C3 (1.0 pmol, ∘---∘), CYP74C3 purified in detergent-buffer (0.5 pmol, ∘—∘) and detergent-free CYP74C3 after reactivation with 5 mM Emulphogene (0.5 pmol, ▾—▾). […] Error bars are the means±standard errors of at least six determinations on two different enzyme preparations.
Substrate specificity was determined by comparing kcat/Km.

[3] = target: T1, CYP74A1 (Arabidopsis thaliana, UniProt Q96242); conditions: pH 6.5
T1 sequence (Q96242 with tags, fused parts or gaps): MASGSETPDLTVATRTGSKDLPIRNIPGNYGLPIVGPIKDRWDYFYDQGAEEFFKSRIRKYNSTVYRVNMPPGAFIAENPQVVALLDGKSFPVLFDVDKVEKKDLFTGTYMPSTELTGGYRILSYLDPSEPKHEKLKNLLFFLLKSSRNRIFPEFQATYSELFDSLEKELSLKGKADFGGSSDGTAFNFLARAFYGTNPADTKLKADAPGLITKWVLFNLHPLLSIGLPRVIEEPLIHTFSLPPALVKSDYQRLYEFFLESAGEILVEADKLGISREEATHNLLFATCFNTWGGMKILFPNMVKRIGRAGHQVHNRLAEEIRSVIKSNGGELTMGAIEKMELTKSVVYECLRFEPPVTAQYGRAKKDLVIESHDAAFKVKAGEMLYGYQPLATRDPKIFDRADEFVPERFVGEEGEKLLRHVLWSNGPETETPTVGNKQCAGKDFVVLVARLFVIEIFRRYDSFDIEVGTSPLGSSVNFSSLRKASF

[4] = test system: Medicago truncatula hydroperoxide lyase CYP74C3 (HPLF), recombinant, wild type, N-terminal histidine-tagged; conditions: for Km / kcat: pH 6.5, 25° C.; for Km / affinity, fold change on detergent removal (Km higher) / kcat, fold difference (detergent-buffer higher than detergent-free): detergent-buffer vs detergent-free; for catalytic efficiency (kcat/Km) of detergent-free enzyme as % of enzyme purified without detergent removal: detergent-free vs detergent-buffer; for kcat as % of kcat with 13α-HPOT: purified in detergent-buffer
[5] = type: physicochemical
Source text: The following table provides a summary enzyme stability studies conducted on HPL and AOS enzymes, subjected to either freeze drying or speedvac drying, in the presence or absence of detergent. What is reported here is the degree to which enzyme activity is lost based on the storage condition. […] Subsequent re-hydration of each dried enzyme and spectroscopic analysis was used to determine the stability of the thus-treated enzymes. FIG. 11 provides stability over time information for the thus stored enzymes showing stability for at least ten weeks. UV/Vis spectra of detergent-free preparations of CYP74C3 (HPLF), CYP74A1 (AOS) and Pepper HPL were determined before and after freeze drying, as well as before and after drying in a speedvac. […] The UV/Vis spectra of preparations of CYP74C3 (HPLF), CYP74A1 (AOS) and Pepper HPL in the detergent triton before and after freeze drying were further determined. The UV/Vis spectra of these preparations were used to determine the percentage loss of protein resulting from freeze drying, or drying in a speedvac and the results are summarised in the following table.

[6] = target: T1, CYP74A1
[7] = +Detergent (purified in detergent-buffer)
[8] = Reactivated with 5 mM Emulphogene

Molecule: O=O [O2, dioxygen]
- binding of ligand to CYP74C3 [1]: shown to bind

Molecule: c1ccc2[nH]cnc2c1 [BI, benzimidazole]
- binding of ligand to CYP74C3 [1]: shown to bind

Molecule: c1ccncc1 [Pyridine, pyridine]
- binding of ligand to CYP74C3 [1]: shown to bind
- Spin state of the haem iron after ligand or detergent binding [1]: Low

Molecule: [C-]#[O+] [CO, Carbon monoxide]
- Spin state of the haem iron after ligand or detergent binding [1]: Low

Molecule: N#C[S-].[K+] [KCNS, potassium thiocyanate]
- binding of ligand to CYP74C3 [1]: shown to bind
- Spin state of the haem iron after ligand or detergent binding [1]: Mixture

Molecule: polyoxyethylene 10 tridecyl ether [Emulphogene]
- Emulphogene concentration at which detergent-free CYP74C3 could be reactivated [2]: exceeding 2.6 mM
- Kd [2]: 6.9 µM
- reactivation of detergent-free CYP74C3 [2]: No reactivation
- Kd [3]: 10.7 ± 1.7 µM
- Spin state of the haem iron after ligand or detergent binding [1]: Low

Molecule: CCCCC[C@@H](/C=C/C=C\CCCCCCCC(=O)O)OO [13α-HPOD, 13-S-hydroperoxyoctadeca-9Z, 11 E-dienoic acid]
- Substrate specificity (% 13α-HPOT), from kcat/Km [4, 7]: 23% and 19%
- kcat/Km [4, 7]: 35.0 µM⁻¹ s⁻¹
- Km [4, 7]: 10.3 ± 2.1 µM
- kcat [4, 7]: 361 ± 19 s⁻¹
- Substrate specificity (% 13α-HPOT), from kcat/Km ([4]; Detergent-free): 19%
- kcat/Km ([4]; Detergent-free): 0.6 µM⁻¹ s⁻¹
- Km ([4]; Detergent-free): 102 ± 11.8 µM
- kcat ([4]; Detergent-free): 59 ± 3 s⁻¹
- Substrate specificity (% 13α-HPOT), from kcat/Km [4, 8]: 22%
- kcat/Km [4, 8]: 33.5 µM⁻¹ s⁻¹
- Km [4, 8]: 14.7 ± 1.9 µM
- kcat [4, 8]: 493 ± 17 s⁻¹
- Km / affinity, fold change on detergent removal (Km higher) [4]: 10 fold
- kcat, fold difference (detergent-buffer higher than detergent-free) [4]: 6 fold
- catalytic efficiency (kcat/Km) of detergent-free enzyme as % of enzyme purified without detergent removal [4]: 2%
- kcat as % of kcat with 13α-HPOT [4]: 70%

Molecule: CC/C=C\C/C=C\C=C\[C@H](CCCCCCCC(=O)O)OO [9α-HPOT, 9-S-hydroperoxy-10E,12Z,15Z-octadecatrienoic acid]
- Substrate specificity (% 13α-HPOT), from kcat/Km [4, 7]: 0.4%
- kcat/Km [4, 7]: 0.6 µM⁻¹ s⁻¹
- Km [4, 7]: 39.1 ± 7.2 µM
- kcat [4, 7]: 24 ± 2 s⁻¹
- Substrate specificity (% 13α-HPOT), from kcat/Km ([4]; Detergent-free): 3%
- kcat/Km ([4]; Detergent-free): 0.1 µM⁻¹ s⁻¹
- Km ([4]; Detergent-free): 81.6 ± 9.7 µM
- kcat ([4]; Detergent-free): 8 ± 0 s⁻¹
- Substrate specificity (% 13α-HPOT), from kcat/Km [4, 8]: 0.4%
- kcat/Km [4, 8]: 0.6 µM⁻¹ s⁻¹
- Km [4, 8]: 51.7 ± 4.4 µM
- kcat [4, 8]: 30 ± 1 s⁻¹
- Km / affinity, fold change on detergent removal (Km higher) [4]: 2 fold
- kcat, fold difference (detergent-buffer higher than detergent-free) [4]: 3 fold
- catalytic efficiency (kcat/Km) of detergent-free enzyme as % of enzyme purified without detergent removal [4]: 17%
- kcat as % of kcat with 13α-HPOT [4]: 5%

Molecule: CCCCC/C=C\C=C\[C@H](CCCCCCCC(=O)O)OO [9α-HPOD]
- Substrate specificity (% 13α-HPOT), from kcat/Km [4, 7]: 8%
- kcat/Km [4, 7]: 12.9 µM⁻¹ s⁻¹
- Km [4, 7]: 15.3 ± 1.4 µM
- kcat [4, 7]: 197 ± 6 s⁻¹
- Substrate specificity (% 13α-HPOT), from kcat/Km ([4]; Detergent-free): 16%
- kcat/Km ([4]; Detergent-free): 0.5 µM⁻¹ s⁻¹
- Km ([4]; Detergent-free): 84.5 ± 10.1 µM
- kcat ([4]; Detergent-free): 44 ± 2 s⁻¹
- Substrate specificity (% 13α-HPOT), from kcat/Km [4, 8]: 5%
- kcat/Km [4, 8]: 7.2 µM⁻¹ s⁻¹
- Km [4, 8]: 25.8 ± 2.2 µM
- kcat [4, 8]: 185 ± 7 s⁻¹
- Km / affinity, fold change on detergent removal (Km higher) [4]: 6 fold
- kcat, fold difference (detergent-buffer higher than detergent-free) [4]: 5 fold
- catalytic efficiency (kcat/Km) of detergent-free enzyme as % of enzyme purified without detergent removal [4]: 4%
- kcat as % of kcat with 13α-HPOT [4]: 38%

Molecule: c1cscn1 [Thiazole, thiazole]
- binding of ligand to CYP74C3 [1]: shown to bind

Molecule: [N-]=[N+]=[N-] [Azide, azide]
- binding of ligand to CYP74C3 [1]: shown to bind
- Spin state of the haem iron after ligand or detergent binding [1]: Mixture

B1: CYP74A1: recombinant allene oxide synthase (AOS) from Arabidopsis thaliana (protein, UniProt Q96242 34-518, looked up)
Allene oxide synthase, …: SGSETPDLTVATRTGSKDLPIRNIPGNYGLPIVGPIKDRWDYFYDQGAEEFFKSRIRKYNSTVYRVNMPPGAFIAENPQVVALLDGKSFPVLFDVDKVEKKDLFTGTYMPSTELTGGYRILSYLDPSEPKHEKLKNLLFFLLKSSRNRIFPEFQATYSELFDSLEKELSLKGKADFGGSSDGTAFNFLARAFYGTNPADTKLKADAPGLITKWVLFNLHPLLSIGLPRVIEEPLIHTFSLPPALVKSDYQRLYEFFLESAGEILVEADKLGISREEATHNLLFATCFNTWGGMKILFPNMVKRIGRAGHQVHNRLAEEIRSVIKSNGGELTMGAIEKMELTKSVVYECLRFEPPVTAQYGRAKKDLVIESHDAAFKVKAGEMLYGYQPLATRDPKIFDRADEFVPERFVGEEGEKLLRHVLWSNGPETETPTVGNKQCAGKDFVVLVARLFVIEIFRRYDSFDIEVGTSPLGSSVNFSSLRKASF
- Loss of active protein (%) ([5]; Freeze Drying, +Emulphogene (0.3% w/v)): 58.1%
- Loss of active protein (%) ([5]; Freeze Drying, +Triton X-100 (0.2% w/v)): 41.3%
- Loss of active protein (%) ([5]; Freeze Drying, Detergent-free): 2.3%
- Loss of active protein (%) ([5]; Speedvac Drying, +Emulphogene (0.3% w/v)): 83.1%
- Loss of active protein (%) ([5]; Speedvac Drying, Detergent-free): 17.6%
- fold increase in kcat/Km after reactivation with detergent micelles [6]: 48 fold
